The record followed here is US12534465B2, “5H-pyrrolo[3,2-d]pyrimidine-2,4-diamino compounds and antibody conjugates thereof” (SUTRO BIOPHARMA, INC., priority 2019, dated 2026).

For one assay, the system named is human PBMCs. In words: Immune cell activation (CD86 expression, flow cytometry). In kind it is cell-based. Conditions: 48 hr, 10 μg/ml LPS-RS. The source says: This example evaluates the ability of Compound 10 to stimulate the activation of different immune cells populations (monocyte, B cell, and DCs), in human PBMCs (Peripheral blood mononuclear cells), cyno PBMCs and mouse splenocytes.
Peripheral blood mononuclear cells (PBMCs) were isolated from fresh collected blood from two healthy human donors and two cynomolgus monkey donors using Leukosep tube and Nycoprep 1.077 buffer according to the manufacture's recommendation. Mouse splenocytes were isolated from C57/BL6 mouse spleens by macerating and straining over a 70 μm cell strainer. Isolated PBMCs or splenocytes were then frozen down using frozen medium. On the day of the assay, PBMCs or splenocytes were thawed and cultured in PBMC culture medium (RPMI supplemented with 10% heat-inactivated fetal bovine serum from Hyclone, 1% Penicillin/Streptomycin and 2 mmol/L-glutamax). 300 k of PBMC or splenocytes in 50 μl of culture medium were seeded in 96-well cell culture plates. 50 μl of the test articles (formulated at 2× of starting concentration) were then added into the well. The cell mixtures were co-cultured in the presence of test articles and 10 μg/ml LPS-RS for 48 hr. The cells were collected by Accutase and then stained with antibodies to different cell population markers and activation markers. Cells were washed, fixed with 2% PFA overnight, and read on the Attune N×T cytometer (Thermo Fisher). Monocyte activation was indicated as increase of CD86 expression on CD14+ cells. B cell activation was indicated as increase of CD86 expression on CD14−/Lin+/HLA-DR+ cells. Dendritic cells (DC) activation was indicated as increase of CD86 expression on CD14−/Lin−/HLA-DR+/CD123+ cells.

A further assay deals with cyno PBMCs. Nature of the assay: Cytokine release (ELISA). Conditions: 48 hr, 10 μg/mL LPS-RS. In kind it is cell-based, cynomolgus monkey. How it is done:
This example evaluates the ability of Compound 10 to induce cytokine release in human PBMCs, cyno PBMCs and mouse splenocytes. Compound 1 and resiquimod:
Human and cyno PBMCs, mouse splenocytes were isolated as described in previous example. The day of the assay, 300 k of PBMC or splenocytes in 50 μL of culture medium were seeded in 96-well cell culture plates. 50 μl of the test articles (formulated at 2× of starting concentration) were then added into the well. The cell mixtures were co-cultured in the presence of test articles and 10 μg/mL LPS-RS for 24 hr (human PBMCs) or 48 hr (cyno PBMCs and mouse splenocytes). Cytokines released were measured by ELISA using cell culture medium.

`CCCCCNc1nc(N)nc2ccn(Cc3ccc(CN4CC5(CNCCO5)C4)cc3OC)c12` [Compound 10, 5-[[2-methoxy-4-(5-oxa-2,8-diazaspiro[3.5]nonan-2-ylmethyl)phenyl]methyl]-N4-pentyl-pyrrolo[3,2-d]pyrimidine-2,4-diamine]: in the assay on human PBMCs (FIG. 1A), the activation of monocytes entry is “very potent”. Also, in the assay with human PBMCs (FIG. 1B), the “activation of B cells” value is “very potent”. For the same compound, the “activation of cDCs” value in the assay with human PBMCs (FIG. 1C) is “very potent”. For the same compound, the “activation of pDCs” value with human PBMCs (FIG. 1D) is reported as “very potent”. For the same compound, the IL-6 release entry in the assay on cyno PBMCs (FIG. 5A) is on record as “strong”. The MCP-1 release entry with cyno PBMCs (FIG. 5B) is “strong”.
